# US20240238228A1, “COMPOSITIONS AND METHODS FOR TREATING ALLERGIES AND INFLAMMATORY CONDITIONS” (UNIVERSITY OF PITTSBURGH-OF THE COMMONWEALTH SYSTEM OF …, priority 2021, published 2024)
# Where two headings read alike, the source gives them in different places.
# Legend:
# sepsis = details: in vivo; cited from earlier work
# [1] = system: passive cutaneous anaphylaxis (PCA); assay: Passive cutaneous anaphylaxis (PCA) in mice; type: in vivo, mouse; details: glyburide 2.5 mg/kg i.p. 3 h prior to PCA induction
# inflammasome = details: cited from earlier work
# STAT5 = STAT5 phosphorylation (flow cytometry) and nuclear localization (ImageStream) in BMMCs; type: cell-based, murine
# Procedure: To detect phospho-Stat5Tyr694, MCs were loaded with IgE in serum and cytokine-free RPMI. Neurokinin A (1.0 μM) or vehicle control and DNP-HSA (100 ng/mL) were added simultaneously. At the indicated time, cells were fixed with 2.0% paraformaldehyde for 10 minutes then permeabilized with 90% methanol overnight at −20° C. Cells were stained with monoclonal anti-phospho-Stat5 Tyr694 Alexa Fluor 647 (clone C71E5, Cell Signaling Technology) for 60 minutes at room temperature. Nuclear co-localization was evaluated using ImageStream (Amnis). Activated BMMCs were fixed with 2.0% paraformaldehyde, permeabilized with Permeabilization Wash Buffer containing 3% FBS and 0.1% Triton X-100. and stained with anti-STAT5B Alexa Fluor 488 (clone EPR16671, Abcam) and DAPI. Data were analyzed using the Co-localization Wizard in IDEAS (v6.2). Co-localization for single cells expressing STAT5B and DAPI was quantified as Similarity Score, a log-transformed Pearson's correlation coefficient for the pixel intensity of corresponding images.
# BMMCs = assay: MS/MS shotgun proteomics on BMMC releasate; type: cell-based, murine
# Procedure: BMMCs (4×10^6) were activated in Tyrode's Buffer without BSA (500 μl) for 1 hour. Protease Inhibitor Cocktail (Sigma, containing aprotinin, bestatin, E-64, leupeptin and pepstatin A) was added to cell free supernatants. Supernatants were concentrated using Amicon Ultra Centrifugal Filters-3K (EID Millipore). Protein concentrations were quantified with the BCA Protein Assay Kit (ThermoFisher). Tryptic peptides were generated with the filter-aided sample preparation method, desalted with C18 spin columns and dried in aspeedvac. Peptides were reconstituted in 0.5% formic acid in 96:4 water:acetonitrile and resolved with liquid chromatography tandem mass spectrometry with a system composed of a Waters nanoACQUITY UPLC in-line with a Q-Exactive mass spectrometer (ThermoFisher). Solvent A (0.1% formic acid in water, Burdick & Jackson) and solvent B (0.1% formic acid in acetonitrile, Burdick & Jackson) were used as the mobile phase. Peptides were then eluted from a capillary column (100 μm inner diameter×100 mm long; ACQUITY UPLC M-Class Peptide BEH C18 Column, 1.7-μm particle size, 300 Å (Waters), and resolved using a 100-min gradient at a flow rate of 0.9 μL/min (4-33% B for 90 min, 33-80% B for 2 min, constant at 80% B for 6 min, and then 80-0% B for 2 min to equilibrate the column). Data were collected in positive ionization mode. PEAKSX software was used to sequence and identify peptides in each sample using a decoy search at a 1.0% false discovery rate using the UniProt murine database. Label-free quantitation was performed using the quantitative module in the PEAKSX software. The MS proteomics data have been deposited to the ProteomeXchange Consortium via the PRIDE partner repository with the dataset identifier PXD021377. Pathway analysis for expressed proteins was done using the Panther Classification System.
# PMCs = assay: β-hexosaminidase release from PMCs; type: cell-based, murine; details: incubated with NKA or activated with IgE and antigen in the presence of NKA
# Procedure: Mast cells (5×10^5-1×10^6) were loaded with IgE ([…]) for a minimum of 3 h in Tyrode's Buffer. Neurokinin A ([…]) was added with DNP-HSA (Sigma, as indicated or 100 ng/mL) for 40 min at 37 C. Cells and supernatants were collected, cell pellets were lysed in Tyrode's Buffer by freeze-thawing then incubated with p-nitrophenyl N-acetyl j-D-glucosaminide (EMB Millipore, 5 mM) dissolved in citrate buffer (0.04 M, pH 4.5) for 90 minutes. The enzymatic reaction was stopped with glycine (0.4 M, pH 10.7). Absorbance at 450 nm was read. The average percentage of b-hexosaminidase release from triplicate values was calculated as (ODsup/ODsup+ODlysate)×100(%).
# [2] = system: mucosal MCs from the lung; details: cited from earlier work
# [3] = system: allergic contact hypersensitivity (CHS); details: NKA administration, cited from earlier work
# MCs = details: previous studies; cited from earlier work
# ABCA1 [4] = assay: Surface ABCA1 expression on activated PMCs (flow cytometry); type: cell-based, murine; details: 30 minutes after IgE-initiated activation; NKA 1000 nM
# Procedure: (§1) MCs were collected and washed with PBS containing 0.5% BSA and 0.1% sodium azide. Non-specific binding was inhibited using FcBlock (PBS with 2.0% goat serum and 0.25 mg/mL anti-CD16/32 (clone 2.4G2, BD Biosciences). Surface staining was done with anti-CD117 eFluor450 (clone 2B8, ThermoFisher), anti-FcεRI FITC (clone MAR-1, ThermoFisher) and anti-ABCA1 Alexa Fluor 647 (clone 5A1-1422, BioRad). Cells were washed with Wash Buffer (PBS with 0.5% BSA and 0.1% sodium azide). To detect differences in granulated proteins at the cell surface, IgE-loaded MCs were activated with DNP-HSA with or without NKA in Tyrode's Buffer for 30 min, washed with Wash Buffer then stained with Avidin Alexa Fluor488 (Invitrogen, Av488, 0.8 μg/5×10^5 cells) and anti-LAMP-1 PE (clone eBio 1D48, ThermoFisher). Data were acquired on either a LSRII or a Fortessa (BD BioSciences). Analysis was performed with FlowJo v10.4 (BD Biosciences).
# calpain = assay: Calpain activity in cell-free supernatants of activated PMCs; type: cell-based, murine; details: IgE+Ag with or without NKA for 60 min
# Procedure: Calpain activity was detected from cell-free supernatants using the Calpain-Glo Protease Assay (Promega). Supernatants were incubated with substrate for 10 min prior to luminescent detection. In some experiments, glyburide or vehicle (0.1% DMSO) were added to cells 10 min prior to Ag. ELISA kits from eBioscience (IL-13), BioLegend, (TNF and IL-10) or RayBiotech (NKA) and used in accord with the manufacturer's recommendations.
# ABCA1 [5] = assay: Surface ABCA1 expression on activated BMMCs (flow cytometry); type: cell-based, murine; details: 30 minutes after IgE-initiated activation; NKA 1000 nM
# Procedure: as §1
molecule,measurement,setting,value
"COc1ccc(Cl)cc1C(=O)NCCc1ccc(S(=O)(=O)NC(=O)NC2CCCCC2)cc1 [glyburide, reference compound]",effect in diabetic patients in sepsis,sepsis,anti-inflammatory and protective
same,ear thickness at 2 h,[1],significantly reduced
same,levels of IL-13 in the skin,[1]; 24 hours,diminished
same,levels of TNF in the skin,[1]; 24 hours,diminished
same,inflammasome,inflammasome,inhibits
Neurokinin A [NKA],nuclear translocation of STAT5B (imaging flow cytometry),STAT5; 30 and 60 minutes following IgE crosslinking,significantly reduced
same,pTyr695-STAT5 detected by flow cytometry,"STAT5; 15 minutes after crosslinking IgE with Ag, NKA 1.0 μM",reduced
same,"release of proteases β-hexosaminidase, MC carboxypeptidase, cathepsin D and chymase",BMMCs,unchanged
same,release of proteins associated with metabolism and cellular function pathways (pathway analysis),BMMCs,inhibited
same,number of proteins upregulated by NKA,BMMCs; BMMCs activated 60 minutes,94
same,catalytic subunit of calpain 1 in releasate,BMMCs; BMMCs activated in the presence of NKA,not detected
same,β-hexosaminidase release,PMCs,no difference
same,histamine release,[2],induces histamine release
same,allergic contact hypersensitivity (CHS) in the skin,[3],blocks
same,allergic contact hypersensitivity (CHS) in the skin,[3]; listed as Neurokinin A,inhibits inflammation
same,effect on MCs (β-hexosaminidase or histamine release as readouts),MCs,no effect
same,ABCA1 detected on the cell surface,ABCA1 [4],reduced the level of ABCA1
same,calpain activity in supernatants,calpain,significantly diminished
same,ABCA1 detected on the cell surface,ABCA1 [5],reduced the level of ABCA1
